From ChEMBL document CHEMBL4229381, “New cytokinin derivatives possess UVA and UVB photoprotective effect on human skin cells and prevent oxidative stress” (Eur J Med Chem, 2018) come the findings set out here.

Data set [1] relates to Amaranthus caudatus. The experiment in a line: Growth promoting activity in Amaranthus caudatus var. atropurpurea seeds by measuring betacyanin at 10^-5 mol/L after 48 hrs relative to control. It is filed as functional.
The subject of data set [2] is Triticum aestivum. The experiment in a line: Anti-senescent activity in leaf of Triticum aestivum cv. Hereward seedlings by measuring chlorophyll retention at 10^-4 mol/L after 4 days relative to control. It is filed as functional.
For data set [3], the system named is Nicotiana tabacum. The experiment in a line: Growth promoting activity in tobacco callus assessed as callus weight at 10^-5 mol/L after 4 weeks relative to control. The class given is functional.
Data set [4] deals with HaCaT. The experiment in a line: Cytotoxicity in human HaCaT cells assessed as reduction in cell viability at 50 uM after 24 hrs by resazurin dye-based fluorescence assay relative to control. In general terms: Resazurin is reduced to fluorescent resorufin, in cell work by metabolically active cells.
A short description of data set [5]: Cytotoxicity in human HaCaT cells assessed as cell viability at 62.5 uM after 24 hrs by neutral red uptake assay relative to control. The class given is cell-based. The settings on record: read-out: Activity.
A short description of data set [6]: Cytotoxicity in human HaCaT cells assessed as cell viability at 7.8 uM after 24 hrs by neutral red uptake assay relative to control. It is filed as cell-based. The settings on record: read-out: Activity.
Data set [7] is described as follows: Cytotoxicity in human NHDF cells assessed as cell viability at 15.6 uM after 24 hrs by neutral red uptake assay relative to control. The settings on record: read-out: Activity. The class given is cell-based.
A short description of data set [8]: Phototoxicity in human HaCaT cells assessed as cell viability at 3.9 uM preincubated for 60 mins followed by 7.5 J/cm2 UVA irradiation and measured after 24 hrs by neutral red uptake assay relative to control. The class given is cell-based. The settings on record: read-out: Activity.
Data set [9] is described as follows: Antioxidant activity assessed as trolox equivalent of AAPH-induced radical scavenging activity at 1 uM pretreated for 15 mins followed by […] challenge measured every 3 mins over 90 mins by ORAC-FL assay. The class given is functional.
The test system of data set [10] is HaCaT. The data set can be described thus: Potency index, ratio […] for cytoprotection against phototoxicity in human HaCaT cells assessed as increase in cell viability at 3.9 preincubated for 60 mins followed by 150 mJ/cm2 UVB irradiation and measured after 24 hrs by neutral red uptake assay. It is filed as functional.

A short description of data set [11]: Phototoxicity in human HaCaT cells assessed as cell viability at 125 uM preincubated for 60 mins followed by 7.5 J/cm2 UVA irradiation and measured after 24 hrs by neutral red uptake assay relative to control. The class given is cell-based. The settings on record: read-out: Activity.
A short description of data set [12]: Cytotoxicity in human NHDF cells assessed as cell viability at 31.3 uM after 24 hrs by neutral red uptake assay relative to control. It is filed as cell-based. The settings on record: read-out: Activity.
Data set [13] is described as follows: Cytotoxicity in human NHDF cells assessed as cell viability at 7.8 uM after 24 hrs by neutral red uptake assay relative to control. The class given is cell-based. The settings on record: read-out: Activity.
Data set [14] in a line: Phototoxicity in human HaCaT cells assessed as cell viability at 62.5 uM preincubated for 60 mins followed by 7.5 J/cm2 UVA irradiation and measured after 24 hrs by neutral red uptake assay relative to control. It is filed as cell-based. The settings on record: read-out: Activity.
Data set [15] in a line: Phototoxicity in human NHDF cells assessed as cell viability at 15.6 uM preincubated for 60 mins followed by 5 J/cm2 UVA irradiation and measured after 24 hrs by neutral red uptake assay relative to control. The class given is cell-based. The settings on record: read-out: Activity.
The test system of data set [16] is Amaranthus caudatus. The experiment in a line: Growth promoting activity in Amaranthus caudatus var. atropurpurea seeds by measuring betacyanin at 10^-4 mol/L after 48 hrs relative to control. It is filed as functional.
Data set [17] concerns HaCaT. The data set can be described thus: Cytoprotection against phototoxicity in human HaCaT cells assessed as increase in cell viability at 3.9 to 31.3 uM preincubated for 60 mins followed by 150 mJ/cm2 UVB irradiation and measured after 24 hrs by neutral red uptake assay. It is filed as functional, cell-based.
A short description of data set [18]: Cytotoxicity in human NHDF cells assessed as cell viability at 3.9 uM after 24 hrs by neutral red uptake assay relative to control. The class given is cell-based. The settings on record: read-out: Activity.
A short description of data set [19]: Phototoxicity in human HaCaT cells assessed as cell viability at 15.6 uM preincubated for 60 mins followed by 7.5 J/cm2 UVA irradiation and measured after 24 hrs by neutral red uptake assay relative to control. The settings on record: read-out: Activity. The class given is cell-based.
Data set [20] in a line: Phototoxicity in human NHDF cells assessed as cell viability at 3.9 uM preincubated for 60 mins followed by 5 J/cm2 UVA irradiation and measured after 24 hrs by neutral red uptake assay relative to control. The settings on record: read-out: Activity. It is filed as cell-based.
Data set [21] can be described thus: Phototoxicity in human HaCaT cells assessed as cell viability at 7.8 uM preincubated for 60 mins followed by 7.5 J/cm2 UVA irradiation and measured after 24 hrs by neutral red uptake assay relative to control. The class given is cell-based. The settings on record: read-out: Activity.
A short description of data set [22]: Cytotoxicity in human HaCaT cells assessed as cell viability at 31.3 uM after 24 hrs by neutral red uptake assay relative to control. It is filed as cell-based. The settings on record: read-out: Activity.
Data set [23] in a line: Cytotoxicity in human NHDF cells assessed as cell viability at 125 uM after 24 hrs by neutral red uptake assay relative to control. The class given is cell-based. The settings on record: read-out: Activity.
Data set [24] in a line: Phototoxicity in human NHDF cells assessed as cell viability at 7.8 uM preincubated for 60 mins followed by 5 J/cm2 UVA irradiation and measured after 24 hrs by neutral red uptake assay relative to control. It is filed as cell-based. The settings on record: read-out: Activity.
Data set [25] in a line: Phototoxicity in human NHDF cells assessed as cell viability at 125 uM preincubated for 60 mins followed by 5 J/cm2 UVA irradiation and measured after 24 hrs by neutral red uptake assay relative to control. It is filed as cell-based. The settings on record: read-out: Activity.
A short description of data set [26]: Cytotoxicity in human HaCaT cells assessed as cell viability at 15.6 uM after 24 hrs by neutral red uptake assay relative to control. The settings on record: read-out: Activity. It is filed as cell-based.
Data set [27] in a line: Phototoxicity in human NHDF cells assessed as cell viability at 62.5 uM preincubated for 60 mins followed by 5 J/cm2 UVA irradiation and measured after 24 hrs by neutral red uptake assay relative to control. It is filed as cell-based. The settings on record: read-out: Activity.
Data set [28] has as its system NHDF. The data set can be described thus: Cytoprotection against phototoxicity in human NHDF cells assessed as increase in cell viability at 3.9 to 31.3 uM preincubated for 60 mins followed by 150 mJ/cm2 UVB irradiation and measured after 24 hrs by neutral red uptake assay. It is filed as functional, cell-based.
Data set [29] has as its system BJ. The data set can be described thus: Cytotoxicity in human BJ cells assessed as reduction in cell viability at 50 uM after 24 hrs by resazurin dye-based fluorescence assay relative to control.
Data set [30] can be described thus: Cytotoxicity in human NHDF cells assessed as cell viability at 62.5 uM after 24 hrs by neutral red uptake assay relative to control. It is filed as cell-based. The settings on record: read-out: Activity.
The nature of data set [31]: Cytotoxicity in human HaCaT cells assessed as cell viability at 3.9 uM after 24 hrs by neutral red uptake assay relative to control. The class given is cell-based. The settings on record: read-out: Activity.
The subject of data set [32] is HaCaT. The experiment in a line: Potency index, ratio of compound effect to rosmarinic acid effect for cytoprotection against phototoxicity in human HaCaT cells assessed as increase in cell viability at 3.9 uM preincubated for 60 mins followed by 150 mJ/cm2 UVB irradiation and measured after 24 hrs by neutral red uptake assay. It is filed as functional.
A short description of data set [33]: Phototoxicity in human HaCaT cells assessed as cell viability at 31.3 uM preincubated for 60 mins followed by 7.5 J/cm2 UVA irradiation and measured after 24 hrs by neutral red uptake assay relative to control. The class given is cell-based. The settings on record: read-out: Activity.
Data set [34] can be described thus: Phototoxicity in human NHDF cells assessed as cell viability at 31.3 uM preincubated for 60 mins followed by 5 J/cm2 UVA irradiation and measured after 24 hrs by neutral red uptake assay relative to control. It is filed as cell-based. The settings on record: read-out: Activity.
Data set [35] relates to HaCaT. The experiment in a line: Cytoprotection against phototoxicity in human HaCaT cells assessed as increase in cell viability at 3.9 uM preincubated for 60 mins followed by 10 J/cm2 UVA irradiation and measured after 24 hrs by neutral red uptake assay. The class given is functional, cell-based.
Data set [36] can be described thus: Cytotoxicity in human HaCaT cells assessed as cell viability at 125 uM after 24 hrs by neutral red uptake assay relative to control. The class given is cell-based. The settings on record: read-out: Activity.
Data set [37] in a line: Stability of the compound in pH 6 solution at 10^-4 M after 24 hrs by HPLC analysis. The settings on record: read-out: Stability. It is filed as physicochemical.
Data set [38] is described as follows: Stability of the compound in pH 4 solution at 10^-4 M after 1 hr by HPLC analysis. It is filed as physicochemical. The settings on record: read-out: Stability.
Data set [39] is described as follows: Stability of the compound in pH 4 solution at 10^-4 M after 24 hrs by HPLC analysis. The class given is physicochemical. The settings on record: read-out: Stability.
Data set [40] in a line: Stability of the compound in pH 5 solution at 10^-4 M after 1 hr by HPLC analysis. The class given is physicochemical. The settings on record: read-out: Stability.
Data set [41] can be described thus: Stability of the compound in pH 7 solution at 10^-4 M after 24 hrs by HPLC analysis. The class given is physicochemical. The settings on record: read-out: Stability.
Data set [42] is described as follows: Stability of the compound in pH 3 solution at 10^-4 M after 24 hrs by HPLC analysis. It is filed as physicochemical. The settings on record: read-out: Stability.
Data set [43] in a line: Stability of the compound in pH 5 solution at 10^-4 M after 24 hrs by HPLC analysis. It is filed as physicochemical. The settings on record: read-out: Stability.
A short description of data set [44]: Stability of the compound in pH 7 solution at 10^-4 M after 1 hr by HPLC analysis. The class given is physicochemical. The settings on record: read-out: Stability.
Data set [45] in a line: Stability of the compound in pH 6 solution at 10^-4 M after 1 hr by HPLC analysis. The class given is physicochemical. The settings on record: read-out: Stability.
The nature of data set [46]: Stability of the compound in pH 3 solution at 10^-4 M after 1 hr by HPLC analysis. The settings on record: read-out: Stability. The class given is physicochemical.

Activity calls are given as the source filed them. The calls are words filed in the database; no cut-off is given here. A value given as a limit tells only on which side of the number the result lay.

As to `c1csc(CNc2[nH]cnc3ncnc2-3)c1`, the Activity was found to be 95% in [1], 60% in data set [2] and 102% in data set [3].
With `Clc1nc(NCC2CCCO2)c2ncn(C3CCCO3)c2n1` (configuration not stated), the Activity in [4] was below 10%; in [9], below 0.05 equiv; in data set [16], 83%; in data set [2] it was 111%; in data set [29] it was below 10%; in data set [3], 104%. Moreover, the viability at 24 h, 62.5 µM amounted to 111% in data set [5], 126% in data set [14], 105% in data set [27] and 102% in data set [30]. Moreover, the viability at 24 h, 7.8 µM is 103% in data set [6], 103% in data set [13], 112% in data set [21] and 103% in data set [24]. Besides, the viability at 24 h, 15.6 µM turned out to be 101% in data set [7], 100% in data set [15], 110% in data set [19] and 104% in data set [26]. The viability at 24 h, 3.9 µM was 105% in data set [8], 103% in [18], 100% in data set [20] and 104% in data set [31]. In addition, the Ratio in data set [10] and in data set [32] was above 2 each time. In addition, the viability at 24 h, 125 µM is 126% in data set [11], 104% in [23], 105% in data set [25] and 111% in data set [36]. Moreover, the viability at 24 h, 31.3 µM in [12] was determined as 106%; in [22], 109%; in [33], 121%; in data set [34], 103%. Besides, the outcome in data set [17] and in data set [28] was Active. In addition, the result in [35] was inactive.
Consider `c1nc(NCC2CCCO2)c2ncn(C3CCCO3)c2n1` (configuration not stated), for which the remaining at 24 h, 100 µM in data set [37] came out at 100%; in data set [39], 44.3%; in data set [41], 100%; in [42], 0.4%; in [43], 92.6%. Moreover, the remaining at 1 h, 100 µM was found to be 100% in data set [38]; 100% in data set [40]; 100% in data set [44]; 100% in data set [45]; 94.3% in data set [46]. For the same molecule, the Activity was below 0.05 equiv in data set [9], 38% in data set [16], 116% in data set [2] and 100% in [3].
